According to patent publication US9012635B2, “Pyridone amides and analogs exhibiting anti-cancer and anti-proliferative activities” (Deciphera Pharmaceuticals, LLC, priority 2013, dated 2015):

Experiments:
A549 cells = test: A549 cell migration assay (HGF-stimulated); format: cell-based; conditions: Homo sapiens, 40 ng/mL HGF, 48 h migration
Experimental: A549 cells (catalog # CCL-185) were obtained from the American Type Culture Collection (ATCC, Manassas, Va.). Briefly, cells were grown in DMEM supplemented with 10% characterized fetal bovine serum (Invitrogen, Carlsbad, Calif.) at 37 degrees Celsius, 5% CO2, 95% humidity. Cells were allowed to expand until reaching 70-95% confluency at which point they were subcultured or harvested for assay use.
Forty thousand cells in DMEM supplemented with 10% characterized fetal bovine serum (FBS; Invitrogen, Carlsbad, Calif.) were added per well in a 96-well black clear bottom Oris Collagen-Coated cell migration plate containing cell seeding stoppers (Platypus Technologies, Madison, Wis.). Cells were then incubated overnight at 37 degrees Celsius, 5% CO2, 95% humidity. Cell seeding stoppers were removed creating an area for cell migration in the center of each well of the plate. Media was replaced with DMEM supplemented with 0.5% FBS. […] A plate mask (Platypus Technologies, Madison, Wis.) that obscures each well except for the area for cell migration in the center of the well was attached to the bottom of the migration plate and fluorescence was detected using a fluorescent plate reader. Data was analyzed using Prism software (Graphpad, San Diego, Calif.) to calculate IC50 values.

[1] = test system: MKN-45 human gastric adenocarcinoma xenograft; test: MKN-45 xenograft study; format: in vivo; conditions: nude mice, oral gavage, after 14 days
Experimental: (§1) To evaluate the in vivo anti-cancer activity compounds of formula I, a MKN-45 human gastric adenocarcinoma xenograft was employed. Briefly, MKN-45 cells were obtained from the Japan Health Sciences Foundation and expanded in RPMI medium which was supplemented with 20% FBS, 1% PSG. The growth environment was maintained in an incubator with a 5% CO2 atmosphere at 37° C. Cells were harvested and re-suspended using 50% serum-free media and 50% Matrigel® to generate a stock concentration of 5×10^6 cells/mL.
Seven to 8 week old female Harlan nude mice (Hsd:AthymicNude-Fox1nu) were injected with 200 μL of cell suspension subcutaneously, just below the right axilla. All procedures carried out in this experiment were conducted in compliance with all the laws, regulations and guidelines of the National Institutes of Health (NIH). Treatment began when the mean tumor burden was approximately 150 mg. All mice were dosed with test compound by oral gavage. Body weights and tumor measurements were recorded three times weekly. Tumor burden (mg) was estimated from caliper measurements by the formula for the volume of a prolate ellipsoid assuming unit density as: Tumor burden (mg)=(L×W2)/2, where L and W were the respective orthogonal tumor length and width measurements (mm). […]

[2] = test system: MET activity in MKN-45 xenograft tumors; test: pMET inhibition in a MKN-45 xenograft pharmacodynamic model; format: in vivo; conditions: nude mice, single oral 10 mg/kg dose, out to 8 h post dose
Experimental: as §1, with “examine” for “evaluate”, “modulation of MET” for “anti-cancer”, “activity by” for “activity”, “I, MKN-45 xenograft tumors were excised at varying time points following” for “I,”, “single oral dose.” for “MKN-45 human gastric adenocarcinoma xenograft was employed.”, “PSG (Penicillin/Streptomycin/Glutamine).” for “PSG.”
Seven to 8 week old female Harlan nude mice (Hsd:AthymicNude-Fox1nu) were injected with 200 μL of cell suspension subcutaneously, just below the right axilla. All procedures carried out in this experiment were conducted in compliance with all the laws, regulations and guidelines of the National Institutes of Health (NIH). Treatment began when the mean tumor burden was approximately 300 mg. All mice were dosed with test compound by oral gavage. Plasma and tumor samples were collected from three mice at each timepoint 2, 4, 6, 8, 12, 18, and 24 hours after dosing. […] Plasma levels of MET inhibitors were determined by mass spectrometer analysis.

IC50 (A549 cells) | SMILES | % T/C ([1]; 10 mg/kg twice daily) | % T/C ([1]; 30 mg/kg twice daily) | inhibition of cFOS mRNA levels [2]
100 to 1000 nM | Cn1cc(-c2cc(Oc3cc(F)c(NC(=O)c4cccn(-c5ccc(F)cc5)c4=O)cc3F)ccn2)cn1 [Example 1, N-(2,5-difluoro-4-((2-(1-methyl-1H-pyrazol-4-yl)pyridin-4-yl)oxy)phenyl)-1-(4-fluorophenyl)-2-oxo-1,2-dihydropyridine-3-carboxamide] |  |  | 
≤ 100 nM | CCOc1ccn(-c2ccc(F)cc2)c(=O)c1C(=O)Nc1cc(F)c(Oc2ccnc(-c3cnn(C)c3)c2)cc1F [Example 2, N-(2,5-difluoro-4-(2-(1-methyl-1H-pyrazol-4-yl)pyridin-4-yloxy)phenyl)-4-ethoxy-1-(4-fluorophenyl)-2-oxo-1,2-dihydropyridine-3-carboxamide] | 19 % T/C | 12 % T/C | 80%
